Reference: paper PMC11124870, “Effect of Antioxidants in Medicinal Products on Intestinal Drug Transporters” (Pharmaceutics, 2024)
Read-outs that look alike come from different tables or passages of the source.

Columns and labels:
[1] = Table S1; source not stated; cited from earlier work
P-gp = molecular target: T1, P-gp (Homo sapiens, UniProt P08183); assay: Vesicular transport assay, 3H-NMQ uptake in P-gp membrane vesicles; assay type: biochemical; conditions: for % Uptake of 3H-NMQ P-gp: antioxidant 200 µM, uptake with DMSO set as 100%, mean ± SD, three replicates, membrane vesicles
T1 construct: purchased ThermoFisher Scientific GM0015; host or cells: Sf9 membrane vesicles
T1 sequence (P08183 whole entry): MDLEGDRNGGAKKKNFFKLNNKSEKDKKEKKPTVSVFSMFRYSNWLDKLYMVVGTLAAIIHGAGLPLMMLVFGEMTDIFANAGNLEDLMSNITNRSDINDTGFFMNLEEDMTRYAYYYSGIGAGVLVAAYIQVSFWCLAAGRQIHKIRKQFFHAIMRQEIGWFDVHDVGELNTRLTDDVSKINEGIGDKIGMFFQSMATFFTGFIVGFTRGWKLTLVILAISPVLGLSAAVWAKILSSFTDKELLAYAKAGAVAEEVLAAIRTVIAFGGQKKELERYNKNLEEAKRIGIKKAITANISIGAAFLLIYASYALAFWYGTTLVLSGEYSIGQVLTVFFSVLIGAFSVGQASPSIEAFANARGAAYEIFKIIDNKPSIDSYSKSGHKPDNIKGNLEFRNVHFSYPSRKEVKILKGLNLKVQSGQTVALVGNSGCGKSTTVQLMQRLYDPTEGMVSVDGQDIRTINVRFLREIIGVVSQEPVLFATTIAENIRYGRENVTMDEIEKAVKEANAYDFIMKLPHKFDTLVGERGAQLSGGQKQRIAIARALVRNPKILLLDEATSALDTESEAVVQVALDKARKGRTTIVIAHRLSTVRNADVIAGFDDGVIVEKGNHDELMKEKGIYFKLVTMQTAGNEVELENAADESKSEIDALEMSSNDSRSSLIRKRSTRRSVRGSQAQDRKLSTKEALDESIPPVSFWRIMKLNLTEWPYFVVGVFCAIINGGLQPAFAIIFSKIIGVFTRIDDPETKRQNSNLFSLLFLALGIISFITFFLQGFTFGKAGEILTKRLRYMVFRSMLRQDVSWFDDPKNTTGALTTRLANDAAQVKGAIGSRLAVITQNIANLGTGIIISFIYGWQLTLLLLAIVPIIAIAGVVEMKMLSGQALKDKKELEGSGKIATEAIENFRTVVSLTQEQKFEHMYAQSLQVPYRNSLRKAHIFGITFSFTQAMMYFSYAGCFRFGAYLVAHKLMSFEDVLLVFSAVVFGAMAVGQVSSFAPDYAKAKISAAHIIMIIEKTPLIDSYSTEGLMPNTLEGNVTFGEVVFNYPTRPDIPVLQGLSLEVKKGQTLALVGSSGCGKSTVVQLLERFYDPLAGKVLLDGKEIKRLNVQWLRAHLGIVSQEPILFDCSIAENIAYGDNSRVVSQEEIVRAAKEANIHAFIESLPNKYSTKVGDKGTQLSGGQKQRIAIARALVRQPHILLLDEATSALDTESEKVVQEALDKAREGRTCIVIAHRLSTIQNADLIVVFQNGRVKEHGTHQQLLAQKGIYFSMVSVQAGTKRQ
Procedure: (§1) The vesicular transport assay was performed using Spodoptera frugiperda 9 (Sf9) membrane vesicles overexpressing human P-gp or BCRP, as reported previously with minor modifications. In brief, Isoplate 96-well flat-bottom white plates were preincubated with HBSS containing 0.5 mg/mL BSA on an orbital shaker in a 37 °C incubator at 90 rpm for 60 min followed by washing with HBSS. The assay mixture (75 µL/well) contained a probe substrate and either vehicle control, a known inhibitor of P-gp or BCRP, or an antioxidant, in vesicle uptake buffer (50 mM MOPS-Tris, pH 7.0 + 70 mM KCl + 7.5 mM MgCl2) prewarmed to 37 °C. After addition of the assay mixture, 5 μL/well (5 μg/μL stock concentration of the vesicles) of vesicles overexpressing human P-gp or BCRP was added. Uptake assays were initiated by adding 20 μL of either 25 mM adenosine triphosphate (ATP) or 25 mM adenosine monophosphate (AMP) to a final concentration of 5 mM. Plates were incubated at 37 °C for 20 min with orbital shaking (90 rpm). After 20 min, the uptake was quenched by adding 150 μL of ice-cold wash buffer (40 mM MOPS-Tris, pH 7.0 + 70 mM KCl) to each well, and the mixture was transferred to a 96-well filtration plate. Vacuum was applied, and the vesicles were washed three times with wash buffer. Vesicles were then lysed with 100 µL of MicroScint-20.

OATP2B1 = molecular target: T2, OATP2B1 (Homo sapiens, UniProt O94956); assay: Uptake transporter assay, 3H-estrone sulfate uptake in HEK-293-OATP2B1 cells
T2 sequence (O94956 1-709): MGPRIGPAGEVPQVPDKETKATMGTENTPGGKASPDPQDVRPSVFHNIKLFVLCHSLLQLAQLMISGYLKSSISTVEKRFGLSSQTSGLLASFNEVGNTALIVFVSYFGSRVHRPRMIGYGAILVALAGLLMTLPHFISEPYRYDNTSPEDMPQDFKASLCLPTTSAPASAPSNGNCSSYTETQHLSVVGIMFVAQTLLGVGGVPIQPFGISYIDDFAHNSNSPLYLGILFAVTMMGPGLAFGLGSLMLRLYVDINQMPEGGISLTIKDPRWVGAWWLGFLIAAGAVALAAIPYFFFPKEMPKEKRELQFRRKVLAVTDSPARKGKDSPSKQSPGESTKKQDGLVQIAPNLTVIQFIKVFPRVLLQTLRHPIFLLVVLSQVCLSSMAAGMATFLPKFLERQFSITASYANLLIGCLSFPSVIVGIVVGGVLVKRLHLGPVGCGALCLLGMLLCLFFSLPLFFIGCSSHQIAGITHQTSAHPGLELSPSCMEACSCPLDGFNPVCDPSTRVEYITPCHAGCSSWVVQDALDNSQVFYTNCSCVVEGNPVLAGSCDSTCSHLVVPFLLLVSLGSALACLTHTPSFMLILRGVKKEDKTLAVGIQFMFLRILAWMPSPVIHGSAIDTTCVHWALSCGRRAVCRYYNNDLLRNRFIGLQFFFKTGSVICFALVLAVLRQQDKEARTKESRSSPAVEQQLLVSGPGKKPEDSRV
Procedure: The uptake transporter assay was performed as reported previously with minor modifications [15]. A day before the uptake assay, Isoplate 96-well plates were coated with poly-D-lysine in PBS with calcium and magnesium and washed with PBS. […] An assay mixture of ^3H-estrone sulfate, a known inhibitor of OATP2B1, or an antioxidant was prepared and incubated in a 37 °C incubator for 10 min. The cells were washed with ice-cold HBSS three times and incubated with MicroScint fluid on a shaker for 1 h for cell lysis. Radioactivity was measured by liquid scintillation counting with a MicroBeta^2® microplate counter. […] On the day of experiment, cells were washed twice with 0.4 mL of HBSS per well and then pre-incubated for 10–20 min in 0.4 mL of HBSS. […] Uptake of ^3H-valsartan was stopped after 15 min by washing three times with ice-cold HBSS. Cells were lysed in 750 µL of lysis buffer (0.1 N NaOH and 0.1% SDS in double-distilled water) per well while shaking for 60 min. A total of 690 µL of the lysate from each well was then added to 2.5 mL of EcoLite scintillation fluid. The radioactivity was determined on a LS6500 Scintillation Counter (Beckman Coulter). Protein concentration was measured with a Pierce™ BCA protein assay kit. The radioactivity in each well was corrected for protein concentration. All values were determined in triplicate, and the final values are expressed as % uptake relative to negative control (1% DMSO).
Antioxidants were screened at a concentration of 200 μM.

BCRP = molecular target: T3, BCRP (Homo sapiens, UniProt Q9UNQ0); assay: Vesicular transport assay, 3H-CCK8 uptake in BCRP membrane vesicles; assay type: biochemical; set-up: purchased ThermoFisher Scientific GM0008; host or cells: Sf9 membrane vesicles; conditions: for % Uptake of 3H-CCK8 BCRP: antioxidant 200 µM, uptake with DMSO set as 100%, mean ± SD, three replicates, membrane vesicles
T3 sequence (Q9UNQ0 1-655): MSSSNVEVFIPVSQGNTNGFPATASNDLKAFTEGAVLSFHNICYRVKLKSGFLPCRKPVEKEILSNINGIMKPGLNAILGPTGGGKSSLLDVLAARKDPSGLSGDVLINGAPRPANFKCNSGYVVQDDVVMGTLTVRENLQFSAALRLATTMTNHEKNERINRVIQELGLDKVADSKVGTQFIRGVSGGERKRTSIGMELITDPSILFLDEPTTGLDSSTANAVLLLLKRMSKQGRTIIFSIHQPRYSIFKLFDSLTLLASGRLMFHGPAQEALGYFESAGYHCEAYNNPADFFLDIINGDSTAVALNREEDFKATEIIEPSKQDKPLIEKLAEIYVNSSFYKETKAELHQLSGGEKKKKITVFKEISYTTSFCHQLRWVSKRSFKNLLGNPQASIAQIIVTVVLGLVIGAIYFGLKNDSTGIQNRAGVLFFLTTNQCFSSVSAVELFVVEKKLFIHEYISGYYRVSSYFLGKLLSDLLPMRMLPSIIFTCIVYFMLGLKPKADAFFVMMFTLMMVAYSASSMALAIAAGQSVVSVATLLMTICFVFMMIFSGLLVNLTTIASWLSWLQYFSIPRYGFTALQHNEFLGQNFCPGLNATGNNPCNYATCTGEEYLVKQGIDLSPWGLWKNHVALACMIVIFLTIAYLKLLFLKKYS
Procedure: as §1

[2] = antioxidant 200 µM, uptake with DMSO set as 100%, mean ± SD, three replicates, HEK-293-OATP2B1 cells

SMILES: O=C(O)c1ccc(O)c(O)c1 [3,4-dihydroxybenzoid acid, 3,4-dihydroxybenzoic acid]
- LogP [1]: 0.86
- % Uptake of 3H-NMQ P-gp (P-gp): 118.9 ± 20%
- % Uptake of 3H-ES OATP2B1 (OATP2B1; [2]): 85.4 ± 4.4%
- % Uptake of 3H-CCK8 BCRP (BCRP): 78.5 ± 6.9%

SMILES: O=C(O)CC(O)(CC(=O)O)C(=O)O [Anhydrous citric acid]
- % Uptake of 3H-NMQ P-gp (P-gp): 92 ± 2.1%
- % Uptake of 3H-CCK8 BCRP (BCRP): 93.1 ± 6.7%

SMILES: O=C1O[C@H]([C@@H](O)CO)C(O)=C1O [Ascorbic acid]
- LogP [1]: -1.85
- % Uptake of 3H-NMQ P-gp (P-gp): 113.6 ± 43.3%
- % Uptake of 3H-CCK8 BCRP (BCRP): 92.7 ± 5.9%

SMILES: O=C1OC(c2ccc(O)c(S(=O)(=O)O)c2)(c2ccc(O)c(S(=O)(=O)O)c2)c2c(Br)c(Br)c(Br)c(Br)c21 [Bromosulfophthalein, reference compound]
- % Uptake of 3H-NMQ P-gp (P-gp): 0.0 ± 22%
- % Uptake of 3H-ES OATP2B1 (OATP2B1; [2]): 10.9 ± 8.1%
- Uptake of 3H-CCK8 in BCRP membrane vesicles (assay validation) (BCRP; BSP 200 µM with 5 mM ATP, 37 °C, 20 min): significantly reduced the uptake
- % Uptake of 3H-CCK8 BCRP (BCRP): 0.3 ± 1.2%

SMILES: Cc1cc(C(C)(C)C)c(O)c(C(C)(C)C)c1 [Butylated hydroxytoluene (BH), Butylated hydroxytoluene]
- % Uptake of 3H-NMQ P-gp (P-gp): 98.1 ± 20.3%
- % Uptake of 3H-ES OATP2B1 (OATP2B1; [2]): 137.1 ± 34.8%
- % Uptake of 3H-CCK8 BCRP (BCRP): 102.8 ± 9.2%

SMILES: O=C(O)/C=C/c1ccc(O)c(O)c1 [Caffeic acid]
- % Uptake of 3H-NMQ P-gp (P-gp): 133.8 ± 12%
- % Uptake of 3H-ES OATP2B1 (OATP2B1; [2]): 119.8 ± 19.8%
- % Uptake of 3H-CCK8 BCRP (BCRP): 75.8 ± 3.7%

SMILES: NCCC(=O)N[C@@H](Cc1cnc[nH]1)C(=O)O [Carnosine]
- LogP [1]: -4
- % Uptake of 3H-NMQ P-gp (P-gp): 82.6 ± 44%
- % Uptake of 3H-ES OATP2B1 (OATP2B1; [2]): 119.3 ± 27.6%
- % Uptake of 3H-CCK8 BCRP (BCRP): 99.7 ± 11.6%

SMILES: COC1=C(OC)C(=O)C(C/C=C(\C)CC/C=C(\C)CC/C=C(\C)CC/C=C(\C)CC/C=C(\C)CC/C=C(\C)CC/C=C(\C)CC/C=C(\C)CC/C=C(\C)CCC=C(C)C)=C(C)C1=O [Co-enzyme Q-10]
- LogP [1]: 10
- % Uptake of 3H-NMQ P-gp (P-gp): 90.3 ± 16.3%
- % Uptake of 3H-ES OATP2B1 (OATP2B1; [2]): 116.1 ± 16.0%
- % Uptake of 3H-CCK8 BCRP (BCRP): 82.7 ± 16.2%

SMILES: COc1cc(/C=C/C(=O)CC(=O)/C=C/c2ccc(O)c(OC)c2)ccc1O [Curcumin, reference compound]
- % Uptake of 3H-NMQ P-gp (P-gp): 0.0 ± 2.8%
- % Uptake of 3H-CCK8 BCRP (BCRP): 0.0 ± 1.8%

SMILES: Cl.N[C@@H](CS)C(=O)O [Cysteine hydrochloride]
- % Uptake of 3H-CCK8 BCRP (BCRP): 90.0 ± 12.5%

SMILES: O=C([O-])CN(CCN(CC(=O)[O-])CC(=O)O)CC(=O)O.[Na+].[Na+] [EDTA (edetate disodium), edetate disodium]
- % Uptake of 3H-NMQ P-gp (P-gp): 69.3 ± 20.5%
- % Uptake of 3H-CCK8 BCRP (BCRP): 110.4 ± 24.6%

SMILES: C[N+](C)(C)[C@@H](Cc1c[nH]c(=S)[nH]1)C(=O)[O-] [Ergothioneine]
- LogP [1]: 0.3
- % Uptake of 3H-NMQ P-gp (P-gp): 58.2 ± 23.6%
- % Uptake of 3H-ES OATP2B1 (OATP2B1; [2]): 118.2 ± 30.6%
- % Uptake of 3H-CCK8 BCRP (BCRP): 112.5 ± 11.2%

SMILES: C#Cc1cccc(Nc2ncnc3cc(OCCOC)c(OCCOC)cc23)c1 [Erlotinib, reference compound]
- % Uptake of 3H-NMQ P-gp (P-gp): 63 ± 5%
- Uptake of 3H-ES in HEK-293 cells expressing OATP2B1 (assay validation) (OATP2B1; erlotinib 20 µM, 37 °C, 10 min): significantly inhibited
- % Uptake of 3H-CCK8 BCRP (BCRP): 58.5 ± 3.9%

SMILES: O=C1O[C@H]([C@H](O)CO)C(O)=C1O [Erythorbic acid]
- LogP [1]: -1.88
- % Uptake of 3H-NMQ P-gp (P-gp): 81.8 ± 31.4%
- % Uptake of 3H-CCK8 BCRP (BCRP): 88.2 ± 7.5%

SMILES: COc1cc(/C=C/C(=O)O)ccc1O [Ferulic acid]
- % Uptake of 3H-NMQ P-gp (P-gp): 100.4 ± 16.6%
- % Uptake of 3H-ES OATP2B1 (OATP2B1; [2]): 136.4 ± 20.7%
- % Uptake of 3H-CCK8 BCRP (BCRP): 91.0 ± 4.7%

SMILES: N[C@@H](CCC(=O)N[C@@H](CS)C(=O)NCC(=O)O)C(=O)O [Glutathione]
- % Uptake of 3H-NMQ P-gp (P-gp): 79.8 ± 15.8%
- % Uptake of 3H-ES OATP2B1 (OATP2B1; [2]): 107.9 ± 7.8%
- % Uptake of 3H-CCK8 BCRP (BCRP): 95.9 ± 2.2%

SMILES: NCC(=O)O [Glycine]
- % Uptake of 3H-ES OATP2B1 (OATP2B1; [2]): 125.6 ± 23.0%

SMILES: N[C@@H](Cc1c[nH]cn1)C(=O)O [Histidine]
- LogP [1]: -3.32
- % Uptake of 3H-NMQ P-gp (P-gp): 87.6 ± 10.6%
- % Uptake of 3H-ES OATP2B1 (OATP2B1; [2]): 108.9 ± 4.0%
- % Uptake of 3H-CCK8 BCRP (BCRP): 92.4 ± 1.6%

SMILES: NCCCC[C@H](N)C(=O)O [Lysine]
- LogP [1]: -3.05
- % Uptake of 3H-NMQ P-gp (P-gp): 32.5 ± 44.3%
- inhibition at 20 min, 200 µM (P-gp; human, Sf9 membrane vesicles overexpressing human P-gp, pH 7, probe 3H-NMQ, 200 µM, 3H-NMQ): ≥ 50%
- % Uptake of 3H-ES OATP2B1 (OATP2B1; [2]): 120.3 ± 21.4%
- % Uptake of 3H-CCK8 BCRP (BCRP): 109.0 ± 20.8%

SMILES: CSCC[C@H](N)C(=O)O [Methionine]
- LogP [1]: -1.87
- % Uptake of 3H-NMQ P-gp (P-gp): 86.7 ± 24.5%
- % Uptake of 3H-ES OATP2B1 (OATP2B1; [2]): 113.2 ± 15.2%
- % Uptake of 3H-CCK8 BCRP (BCRP): 94.8 ± 9.4%

SMILES: O=P(O)(O)O [Phosphoric acid]
- % Uptake of 3H-CCK8 BCRP (BCRP): 83.0 ± 18.0%

SMILES: C/C=C/C=C/C(=O)[O-].[K+] [Potassium sorbate]
- % Uptake of 3H-NMQ P-gp (P-gp): 103.5 ± 28.7%
- % Uptake of 3H-ES OATP2B1 (OATP2B1; [2]): 98.8 ± 19.8%
- % Uptake of 3H-CCK8 BCRP (BCRP): 104.8 ± 14.5%

SMILES: CCCOC(=O)c1cc(O)c(O)c(O)c1 [Propyl gallate]
- % Uptake of 3H-NMQ P-gp (P-gp): 149.1 ± 67.6%
- % Uptake of 3H-ES OATP2B1 (OATP2B1; [2]): 79.3 ± 17.2%
- % Uptake of 3H-CCK8 BCRP (BCRP): 86.5 ± 2.6%

SMILES: Oc1ccc2c(c1)OCO2 [Sesamol]
- LogP [1]: 1.57
- % Uptake of 3H-NMQ P-gp (P-gp): 121.3 ± 35.1%
- % Uptake of 3H-ES OATP2B1 (OATP2B1; [2]): 103.1 ± 7.2%
- % Uptake of 3H-CCK8 BCRP (BCRP): 90.3 ± 3.7%

SMILES: O=S([O-])O.[Na+] [Sodium bisulfite]
- LogP [1]: -1.2
- % Uptake of 3H-NMQ P-gp (P-gp): 96.1 ± 30.4%
- % Uptake of 3H-ES OATP2B1 (OATP2B1; [2]): 90.1 ± 24.5%
- % Uptake of 3H-CCK8 BCRP (BCRP): 110.4 ± 9.3%

SMILES: O=C(O)C(O)C(O)C(=O)O (stereo not shown) [Tartaric acid]
- LogP [1]: -0.76
- % Uptake of 3H-ES OATP2B1 (OATP2B1): 101.1 ± 5.8%
